Data: patent US11987563B1, “3-cyano 4,5-diphenyl furan-2-carboxamides as antitubercular agents” (KING FAISAL UNIVERSITY, priority 2023, dated 2024)

Assays:
M. smegmatis = test: Microplate Alamar Blue Assay (MABA) against M. smegmatis; type: cell-based, Mycobacterium smegmatis; settings: Mycolicibacterium smegmatis; read-out: M. smegmatis (% of inhibition) 50 μg/mL
M. tuberculosis H37Rv = test: Microplate Alamar Blue Assay (MABA) against M. tuberculosis H37Rv; type: cell-based; settings: Mycobacterium tuberculosis, read-out: M. tuberculosis H37Rv (% of inhibition) 50 μg/mL

Structure (SMILES) | inhibition at 50 µg/mL (M. smegmatis) | inhibition at 50 µg/mL (M. tuberculosis H37Rv)
N#Cc1c(N)oc(-c2ccccc2)c1-c1ccccc1 [Compound 1, 2-Amino-4,5-diphenylfuran-3-carbonitrile] | 32% | 6%
CC(=O)Nc1oc(-c2ccccc2)c(-c2ccccc2)c1C#N [Compound 2a, N-(3-Cyano-4,5-diphenylfuran-2-yl)acetamide] | 38% | 27%
N#Cc1c(NC(=O)c2ccccc2)oc(-c2ccccc2)c1-c1ccccc1 [Compound 2b, N-(3-Cyano-4,5-diphenylfuran-2-yl)benzamide] | 13% | 6%
N#Cc1c(NC(=O)c2ccc(Cl)cc2)oc(-c2ccccc2)c1-c1ccccc1 [Compound 2c, 4-Chloro-N-(3-cyano-4,5-diphenylfuran-2-yl)benzamide] | 25% | 19%
Cc1ccc(S(=O)(=O)Nc2oc(-c3ccccc3)c(-c3ccccc3)c2C#N)cc1 [Compound 2d, N-(3-Cyano-4,5-diphenylfuran-2-yl)-4-methylbenzenesulfonamide] | 37% | 9%
